Laboratory results published in patent publication US20180000085A1, “USE OF PICOLINAMIDE COMPOUNDS WITH FUNGICIDAL ACTIVITY” (DOW AGROSCIENCES LLC, priority 2014, published 2018).

Key:
Format in all cases: in vivo
Leptosphaeria nodorum = experiment: Wheat glume blotch (LEPTNO) disease control; settings: 100 ppm, 1 Day Protectant
Method: All fungicides were evaluated using the aforementioned method for their activity vs. all target diseases, unless stated otherwise. Wheat leaf blotch and brown rust activity were also evaluated using track spray applications, in which case the fungicides were formulated as EC formulations, containing 0.1% Trycol 5941 in the spray solutions. Wheat plants (variety Yuma) were grown from seed in a greenhouse in 50% mineral soil/50% soil-less Metro mix until the first leaf was fully emerged, with 7-10 seedlings per pot. These plants were inoculated with an aqueous spore suspension of Zymoseptoria tritici either prior to or after fungicide treatments. After inoculation the plants were kept in 100% relative humidity (one day in a dark dew chamber followed by two to three days in a lighted dew chamber at 20° C.) to permit spores to germinate and infect the leaf. The plants were then transferred to a greenhouse set at 20° C. for disease to develop. When disease symptoms were fully expressed on the 1st leaves of untreated plants, infection levels were assessed on a scale of 0 to 100 percent disease severity. Percent disease control was calculated using the ratio of disease severity on treated plants relative to untreated plants. Example C: Evaluation of Fungicidal Activity: Wheat Glume Blotch (Leptosphaeria nodorum; Bayer Code […]) Wheat plants (variety Yuma) were grown from seed in a greenhouse in 50% mineral soil/50% soil-less Metro mix until the first leaf was fully emerged, with 7-10 seedlings per pot. These plants were inoculated with an aqueous spore suspension of Leptosphaeria nodorum 24 hr after fungicide treatments. After inoculation the plants were kept in 100% relative humidity (one day in a dark dew chamber followed by two days in a lighted dew chamber at 20° C.) to permit spores to germinate and infect the leaf. The plants were then transferred to a greenhouse set at 20° C. for disease to develop. Fungicide formulation, application and disease assessment followed the procedures as described in the Example A.

Venturia inaequalis = experiment: Apple scab (VENTIN) disease control; settings: 100 ppm, 1 Day Protectant
Method: All fungicides were evaluated using the aforementioned method for their activity vs. all target diseases, unless stated otherwise. Wheat leaf blotch and brown rust activity were also evaluated using track spray applications, in which case the fungicides were formulated as EC formulations, containing 0.1% Trycol 5941 in the spray solutions. Wheat plants (variety Yuma) were grown from seed in a greenhouse in 50% mineral soil/50% soil-less Metro mix until the first leaf was fully emerged, with 7-10 seedlings per pot. These plants were inoculated with an aqueous spore suspension of Zymoseptoria tritici either prior to or after fungicide treatments. After inoculation the plants were kept in 100% relative humidity (one day in a dark dew chamber followed by two to three days in a lighted dew chamber at 20° C.) to permit spores to germinate and infect the leaf. The plants were then transferred to a greenhouse set at 20° C. for disease to develop. When disease symptoms were fully expressed on the 1st leaves of untreated plants, infection levels were assessed on a scale of 0 to 100 percent disease severity. Percent disease control was calculated using the ratio of disease severity on treated plants relative to untreated plants. […] Seedlings with two expanding young leaves at the top (older leaves at bottom of the plants were trimmed) were used in the test. Plants were inoculated with a spore suspension of Venturia inaequalis 24 hr after fungicide treatment and kept in a 22° C. dew chamber with 100% relative humidity for 48 hr, and then moved to a greenhouse set at 20° C. for disease to develop. Fungicide formulation, application and disease assessment on the sprayed leaves followed the procedures as described in the Example A.

Cercospora beticola = experiment: Leaf spot of sugar beets (CERCBE) disease control; settings: 100 ppm; 1 Day Protectant; sugar beet
Method: All fungicides were evaluated using the aforementioned method for their activity vs. all target diseases, unless stated otherwise. Wheat leaf blotch and brown rust activity were also evaluated using track spray applications, in which case the fungicides were formulated as EC formulations, containing 0.1% Trycol 5941 in the spray solutions. Wheat plants (variety Yuma) were grown from seed in a greenhouse in 50% mineral soil/50% soil-less Metro mix until the first leaf was fully emerged, with 7-10 seedlings per pot. These plants were inoculated with an aqueous spore suspension of Zymoseptoria tritici either prior to or after fungicide treatments. After inoculation the plants were kept in 100% relative humidity (one day in a dark dew chamber followed by two to three days in a lighted dew chamber at 20° C.) to permit spores to germinate and infect the leaf. The plants were then transferred to a greenhouse set at 20° C. for disease to develop. When disease symptoms were fully expressed on the 1st leaves of untreated plants, infection levels were assessed on a scale of 0 to 100 percent disease severity. Percent disease control was calculated using the ratio of disease severity on treated plants relative to untreated plants. Example F: Evaluation of Fungicidal Activity: Leaf Spot of Sugar Beets (Cercospora beticola; Bayer Code CERCBE) Sugar beet plants (variety HH88) were grown in soil-less Metro mix and trimmed regularly to maintain a uniform plant size prior to test. Plants were inoculated with a spore suspension 24 hr after fungicide treatments. Inoculated plants were kept in a dew chamber at 22° C. for 48 hr then incubated in a greenhouse set at 24° C. under a clear plastic hood with bottom ventilation until disease symptoms were fully expressed. Fungicide formulation, application and disease assessment on the sprayed leaves followed the procedures as described in the Example A.

Phakopsora pachyrhizi = experiment: Asian soybean rust (PHAKPA) disease control; settings: 25 ppm; for PHAKPA disease control, 1DP: 1 Day Protectant; for PHAKPA disease control, 3DC: 3 Day Curative
Pyricularia oryzae = settings: 100 ppm; 1 Day Protectant; rice

CCC(CC)[C@@H](Oc1ccccc1)[C@H](C)OC(=O)[C@H](C)NC(=O)c1nccc(OC)c1OCOC(C)=O [Cmpd 477]
LEPTNO disease control, 1DP (Leptosphaeria nodorum): A (> 80)
VENTIN disease control, 1DP (Venturia inaequalis): B (≤ 80)
CERCBE disease control, 1DP (Cercospora beticola): A (> 80)
PHAKPA disease control, 1DP (Phakopsora pachyrhizi): A (> 80)
PHAKPA disease control, 3DC (Phakopsora pachyrhizi): B (≤ 80)
PYRIOR disease control, 1DP (Pyricularia oryzae): A (> 80)

CCC(CC)[C@@H](Oc1ccccc1)[C@H](C)OC(=O)[C@H](C)NC(=O)c1nccc(OC)c1OC(C)=O [Cmpd 479]
LEPTNO disease control, 1DP (Leptosphaeria nodorum): A (> 80)
VENTIN disease control, 1DP (Venturia inaequalis): A (> 80)
CERCBE disease control, 1DP (Cercospora beticola): A (> 80)
PHAKPA disease control, 1DP (Phakopsora pachyrhizi): A (> 80)
PHAKPA disease control, 3DC (Phakopsora pachyrhizi): B (≤ 80)
PYRIOR disease control, 1DP (Pyricularia oryzae): A (> 80)

COc1ccnc(C(=O)N[C@@H](C)C(=O)O[C@@H](C)[C@H](Oc2ccccc2)c2ccccc2)c1OCOC(C)=O [Cmpd 500]
LEPTNO disease control, 1DP (Leptosphaeria nodorum): A (> 80)
VENTIN disease control, 1DP (Venturia inaequalis): B (≤ 80)
CERCBE disease control, 1DP (Cercospora beticola): A (> 80)
PHAKPA disease control, 1DP (Phakopsora pachyrhizi): B (≤ 80)
PHAKPA disease control, 3DC (Phakopsora pachyrhizi): B (≤ 80)
PYRIOR disease control, 1DP (Pyricularia oryzae): A (> 80)

COc1ccnc(C(=O)N[C@@H](C)C(=O)O[C@@H](C)[C@H](Oc2ccccc2)C2CCCC2)c1OCOC(C)=O [Cmpd 556]
LEPTNO disease control, 1DP (Leptosphaeria nodorum): A (> 80)
VENTIN disease control, 1DP (Venturia inaequalis): A (> 80)
CERCBE disease control, 1DP (Cercospora beticola): A (> 80)
PHAKPA disease control, 1DP (Phakopsora pachyrhizi): A (> 80)
PHAKPA disease control, 3DC (Phakopsora pachyrhizi): B (≤ 80)
PYRIOR disease control, 1DP (Pyricularia oryzae): A (> 80)

COc1ccnc(C(=O)N[C@@H](C)C(=O)O[C@@H](C)[C@H](Oc2cc(F)cc(Cl)c2)c2ccccc2)c1OC(C)=O [Cmpd 642]
LEPTNO disease control, 1DP (Leptosphaeria nodorum): A (> 80)
VENTIN disease control, 1DP (Venturia inaequalis): A (> 80)
CERCBE disease control, 1DP (Cercospora beticola): A (> 80)
PHAKPA disease control, 1DP (Phakopsora pachyrhizi): B (≤ 80)
PHAKPA disease control, 3DC (Phakopsora pachyrhizi): B (≤ 80)
PYRIOR disease control, 1DP (Pyricularia oryzae): A (> 80)

CCC(C)C(Oc1ccccc1)C(C)OC(=O)C(C)NC(=O)c1nccc(OC)c1OCOC(C)=O (stereo not drawn) [Cmpd 692]
LEPTNO disease control, 1DP (Leptosphaeria nodorum): A (> 80)
VENTIN disease control, 1DP (Venturia inaequalis): B (≤ 80)
CERCBE disease control, 1DP (Cercospora beticola): A (> 80)
PHAKPA disease control, 1DP (Phakopsora pachyrhizi): A (> 80)
PHAKPA disease control, 3DC (Phakopsora pachyrhizi): B (≤ 80)
PYRIOR disease control, 1DP (Pyricularia oryzae): A (> 80)

C=CC(C)C(Oc1ccccc1)C(C)OC(=O)C(C)NC(=O)c1nccc(OC)c1OCOC(C)=O (stereo not drawn) [Cmpd 694]
LEPTNO disease control, 1DP (Leptosphaeria nodorum): A (> 80)
VENTIN disease control, 1DP (Venturia inaequalis): B (≤ 80)
CERCBE disease control, 1DP (Cercospora beticola): A (> 80)
PHAKPA disease control, 1DP (Phakopsora pachyrhizi): A (> 80)
PHAKPA disease control, 3DC (Phakopsora pachyrhizi): B (≤ 80)
PYRIOR disease control, 1DP (Pyricularia oryzae): A (> 80)

CCC[C@@H](Oc1ccccc1)[C@H](C)OC(=O)[C@H](C)NC(=O)c1nccc(OC)c1OCOC(C)=O [Cmpd 699]
LEPTNO disease control, 1DP (Leptosphaeria nodorum): A (> 80)
VENTIN disease control, 1DP (Venturia inaequalis): B (≤ 80)
CERCBE disease control, 1DP (Cercospora beticola): A (> 80)
PHAKPA disease control, 1DP (Phakopsora pachyrhizi): A (> 80)
PHAKPA disease control, 3DC (Phakopsora pachyrhizi): B (≤ 80)
PYRIOR disease control, 1DP (Pyricularia oryzae): A (> 80)
